Assay results: the supplement of paper PMC8882468

Columns and labels:
Test in all cases: CTG-3D luminescence at 96 h relative to day-0 seeding control (ratio to day 0); higher = more growth / less cytotoxicity; PDxO 3D drug screen, 96 h, CTG-3D normalised to day-0 seeding control.
[1] = tested on: HCI-012 (organoid from a breast cancer xenograft)
[2] = tested on: HCI-011.E2 (organoid from an ER-positive breast cancer xenograft)
[3] = tested on: HCI-010 (organoid from a breast cancer xenograft)
[4] = tested on: HCI-001 (organoid from a triple-negative breast cancer xenograft)
[5] = tested on: HCI-027 (organoid from a triple-negative breast cancer xenograft)
[6] = tested on: MDA-MB-231

C[C@@H]1COCCN1c1cc(C2([S@](C)(=N)=O)CC2)nc(-c2cc[nH]c3nccc2-3)n1 [ceralasertib]
CTG-3D luminescence at 96 h
Conditions	12.5 pM	0.00025 µM	0.005 µM	0.1 µM	1 µM	10 µM	100 µM	625 fM
[1], days in culture: 143	2.09	2.04	2.05	2.14	1.8	0.748	0.319	2.02
[1], days in culture: 162	2.52	2.31	2.18	3.14	1.92	1.3	0.451	3.18
[1], days in culture: 201	2.62	2.22	1.56	1.68	2.3	0.577	0.973	1.75
[2], days in culture: 74	2.18	2.33	1.97	1.85	1.53	0.982	0.237	1.86
[3], days in culture: 52	2.13	2.39	2.26	2.04	0.835	0.422	0.238	2.24
[3], days in culture: 65	1.69	1.62	1.85	1.57	0.693	0.3	0.152	1.65
[3], days in culture: 103	3.6	3.3	3.45	3	1.49	0.548	0.325	3.14
[4], days in culture: 240	1.54	0.962	0.905	0.752	1.11	0.512	0.536	1.21
[4], days in culture: 260	1.68	0.899	1.81	1.66	1.19	0.492	0.35	1.32
[4], days in culture: 269	1.61	1.65	1.82	1.79	1.06	0.544	0.577	1.54
[4], days in culture: 327	1.41	1.4	1.77	1.47	1.36	0.335	0.479	1.44
[4], days in culture: 346	1.56	1.49	1.38	1.3	1.02	0.456	0.658	1.26
[4], days in culture: 364	1.44	1.19	1.23	1.16	0.732	0.301	0.319	1.52
[5], days in culture: 176	2	1.26	2.33	1.47	0.682	0.114	0.29	2.06
[5], days in culture: 194	1.7	1.54	1.32	1.62	0.748	0.111	0.232	1.56
[5], days in culture: 201	1.78	1.98	1.99	2.1	0.726	0.134	0.279	1.54

CTG-3D luminescence at 96 h
Conditions	12.5 pM	0.00025 µM	0.005 µM	0.1 µM	1 µM	10 µM	100 µM	625 fM
[2]	1.56	1.76	1.56	1.78	1.42	1.02	0.326	1.89
[6]	4.45	4.38	4.49	4.47	4.27	3.1	1.86	4.53

Cc1cc(Nc2ncc(Cl)c(Nc3ccccc3S(=O)(=O)C(C)C)n2)c(OC(C)C)cc1C1CCNCC1 [ceritinib]
CTG-3D luminescence at 96 h
Conditions	12.5 pM	0.00025 µM	0.005 µM	0.1 µM	1 µM	10 µM	100 µM	625 fM
[1], days in culture: 143	2.17	1.8	1.89	2.08	1.92	0.0093	-0.00596	2.32
[1], days in culture: 162	2.32	2.04	1.68	2.9	2.19	0.0143	-0.00682	2.82
[1], days in culture: 201	2.62	2.34	1.57	1.57	2.44	0.00702	-0.00682	1.54
[2], days in culture: 74	1.46	1.59	1.77	2.11	1.4	0.0662	-0.00371	1.72
[3], days in culture: 52	2.34	2.15	2.46	2.54	2.64	-0.0117	-0.0342	2.26
[3], days in culture: 65	1.61	1.61	1.79	1.94	1.83	0.00782	-0.00536	1.74
[3], days in culture: 103	3.59	3.48	3.35	3.68	3.99	0.0149	-0.0118	3.09
[4], days in culture: 240	1.82	1.14	1.07	1.15	0.858	0.121	-0.00201	1.26
[4], days in culture: 260	2.25	1.05	1.67	1.28	1.21	0.018	-0.00298	1.55
[4], days in culture: 269	1.92	1.77	1.43	1.82	1.23	-0.0266	-0.0412	1.9
[4], days in culture: 327	1.58	1.14	1.9	1.78	1.24	0.164	-0.00344	1.92
[4], days in culture: 346	1.59	1.27	1.16	1.24	1.19	0.45	-0.00215	1.39
[4], days in culture: 364	1.52	1.11	1.4	0.954	1.13	0.315	-0.00387	1.85
[5], days in culture: 176	2.26	1.27	2.21	1.68	1.81	0.00647	-0.00642	2.34
[5], days in culture: 194	1.42	1.26	1.1	1.96	1.8	0.0105	-0.00633	1.39
[5], days in culture: 201	2.21	1.72	1.65	1.66	1.47	0.0089	-0.00463	1.31

CTG-3D luminescence at 96 h
Conditions	12.5 pM	0.00025 µM	0.005 µM	0.1 µM	1 µM	10 µM	100 µM	625 fM
[2]	1.68	1.409	1.37	1.85	1.4	0.353	-0.00338	1.92
[6]	4.39	4.39	4.6	4.48	4.36	0.0178	-0.011	4.51

O=C(c1ccc(F)c(F)c1Nc1ccc(I)cc1F)N1CC(O)([C@@H]2CCCCN2)C1 [cobimetinib]
CTG-3D luminescence at 96 h
Conditions	12.5 pM	0.00025 µM	0.005 µM	0.1 µM	1 µM	10 µM	100 µM	625 fM
[1], days in culture: 143	1.73	1.86	1.88	1.87	1.57	0.758	-0.00459	1.71
[1], days in culture: 162	2.44	2.1	1.91	2.85	1.59	1.45	0.00171	2.91
[1], days in culture: 201	2.69	1.53	1.69	1.91	2.24	1.02	-0.00449	1.35
[2], days in culture: 74	2.68	2.66	2.33	1.91	1.8	2.39	0.00131	2.55
[3], days in culture: 52	2.3	2.56	2.39	2.62	2.15	1.67	0.00712	2.57
[3], days in culture: 65	1.64	1.75	1.83	1.67	1.6	1.18	0.00337	1.61
[3], days in culture: 103	3.83	3.96	3.78	3.21	2.72	1.92	0.00125	3.51
[4], days in culture: 240	1.59	1.08	1.09	1.08	1.32	0.812	0.00168	1.41
[4], days in culture: 260	2.44	1.15	1.46	1.28	1.58	1.5	0.00186	1.87
[4], days in culture: 269	1.48	1.58	1.56	1.49	1.26	1.83	-0.00203	1.53
[4], days in culture: 327	1.36	1.44	1.72	1.75	1.43	1.04	0.00317	1.52
[4], days in culture: 346	1.24	1.22	1.07	1.14	1.13	1.22	-7.73e-05	1.11
[4], days in culture: 364	1.35	1.27	1.3	0.986	0.9	0.905	0.000378	1.51
[5], days in culture: 176	2.03	1.26	2.15	1.13	1.04	0.17	0.0169	1.76
[5], days in culture: 194	1.89	1.29	1.38	1.42	1.56	0.796	0.014	1.65
[5], days in culture: 201	1.99	1.85	1.63	1.68	0.995	0.365	0.0102	2.09

CTG-3D luminescence at 96 h
Conditions	12.5 pM	0.00025 µM	0.005 µM	0.1 µM	1 µM	10 µM	100 µM	625 fM
[2]	1.67	1.69	1.54	1.81	1.6	1.58	0.00136	1.85
[6]	4.37	4.46	4.46	3.88	2.4	1.24	-0.00771	4.43

C[C@H](NC(=O)CCC(F)(F)F)C(=O)N[C@@H]1C(=O)N(CCO)c2ncccc2-c2ccccc21 [crenigacestat]
CTG-3D luminescence at 96 h
Conditions	12.5 pM	0.00025 µM	0.005 µM	0.1 µM	1 µM	10 µM	100 µM	625 fM
[1], days in culture: 143	1.9	1.85	1.63	2.49	2.07	2.78	2.65	1.78
[1], days in culture: 162	2.11	2.3	1.74	2.93	1.87	2.96	2.74	2.57
[1], days in culture: 201	2.55	1.94	1.82	1.75	2.3	1.67	2.55	1.72
[2], days in culture: 74	2.42	2.44	1.96	2.06	2.51	2.95	2.45	2.02
[3], days in culture: 52	2.36	2.09	2.19	2.54	2.37	2.23	2.04	2
[3], days in culture: 65	1.61	1.63	1.79	1.64	1.79	1.6	1.45	1.67
[3], days in culture: 103	3.59	3.73	3.34	3.15	3.09	2.87	2.58	2.85
[4], days in culture: 240	1.25	1.04	1.03	0.845	1.36	1.2	1.45	0.941
[4], days in culture: 260	2.03	0.875	1.52	1.34	1.54	1.84	1.12	1.44
[4], days in culture: 269	1.62	1.6	1.37	1.29	1.39	2.1	2	1.33
[4], days in culture: 327	1.46	1.4	1.63	1.87	1.24	1.06	1.64	1.76
[4], days in culture: 346	1.3	1.2	1.1	1.08	1.32	1.35	1.76	1.11
[4], days in culture: 364	1.4	1.08	1.35	1	1.1	1.27	1.1	1.43
[5], days in culture: 176	1.81	1.25	0.916	0.198	0.179	0.173	0.335	1.6
[5], days in culture: 194	1.84	1.19	0.958	0.251	0.276	0.312	0.344	1.57
[5], days in culture: 201	2.13	1.77	1.26	0.249	0.206	0.258	0.259	1.97

CTG-3D luminescence at 96 h
Conditions	12.5 pM	0.00025 µM	0.005 µM	0.1 µM	1 µM	10 µM	100 µM	625 fM
[2]	1.52	2.05	1.54	1.98	1.59	1.95	1.98	1.91
[6]	4.47	4.32	4.4	4.27	4.51	4.53	4.69	4.5
